Each structure is given as a SMILES string.

T1 sequence (P35408 whole entry): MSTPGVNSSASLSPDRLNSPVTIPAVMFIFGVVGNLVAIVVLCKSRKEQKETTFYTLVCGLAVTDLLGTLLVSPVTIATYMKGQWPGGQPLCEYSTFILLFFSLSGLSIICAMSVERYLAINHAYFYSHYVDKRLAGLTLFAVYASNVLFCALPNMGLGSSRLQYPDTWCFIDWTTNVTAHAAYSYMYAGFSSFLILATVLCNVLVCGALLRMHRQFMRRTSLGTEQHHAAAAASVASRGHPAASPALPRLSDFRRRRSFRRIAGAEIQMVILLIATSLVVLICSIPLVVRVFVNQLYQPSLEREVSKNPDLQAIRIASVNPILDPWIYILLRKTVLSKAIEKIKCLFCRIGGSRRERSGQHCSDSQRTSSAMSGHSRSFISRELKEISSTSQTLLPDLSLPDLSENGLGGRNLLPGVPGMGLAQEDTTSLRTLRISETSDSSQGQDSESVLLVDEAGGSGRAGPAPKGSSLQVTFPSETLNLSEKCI

The test concerns the target T1, EP4 (Homo sapiens, UniProt P35408).
T1 construct: host or cells: HEK293, stably transfected; also expresses a promiscuous G protein and a clytin variant
The test can be described thus: EP4 Ca2+-flux assay (functional calcium flux assay, stably transfected HEK293 cells). The following applies: HEK293 cells stably transfected with EP4; ligand PGE2 10 nM; luminescence readout. Format: cell-based. As to the method: The compounds in the present disclosure were tested in a functional calcium flux assay using stably transfected HEK293 cells. Cells transfected with EP1, EP2, EP3 and EP4 were purchased from Eurofins Discovery Services (St. Charles, Mo.). Each receptor subtype has an additional promiscuous G protein added in order to couple to the calcium signaling pathway. The parental cell line used also expresses a novel variant of clytin, a calcium-activated photo-protein, to enable sensitive luminescent detection.
Cells were plated at 50,000 cells per well in black, clear bottom 96-well plates. The plated cells were allowed to sit at room temperature for 30 min prior to transferring to a humidified, 37° C., 5% CO2 incubator for 18-24 h. Assay buffer (HBSS with 20 mM HEPES) and loading buffer (assay buffer plus 10 μM Coelenterazine) were prepared on the day of the assay. Assays were performed by aspirating media from the assay plate and washing once with assay buffer, then replacing with loading buffer and allowing the cells to incubate for 1.5 h at room temperature. Compounds were prepared in assay buffer at a 3× final concentration in non-binding plates. Compounds were added to the cell plates and incubated for 30 min at room temperature. The prostanoid receptor ligand PGE2 was prepared at a 4× dilution ratio for a final concentration of 10 nM. Plates were run on a Flexstation™ using a 100 ms integration luminescence protocol for a total of 60 sec with ligand addition at 15 sec. Data were obtained from relative light units as measured by area under the curve.
For orientation: Calcium flux is commonly read through the fluorescence of an indicator in the cells.
As for `O=C(NC1CC2(C1)CC(C(=O)O)C2)c1ccnc2ccn(Cc3ccc(C(F)(F)F)cc3)c12` (racemic) [Example 9, rac-6-(1-(4-(trifluoromethyl)benzyl)-1H-pyrrolo[3,2-b]pyridine-7-carboxamido) spiro[3.3]heptane-2-carboxylic Acid], the IC50 was determined as 6 nM.

Turning to `O=C(O)C[C@]12C[C@](NC(=O)c3cccc4cnn(Cc5ccc(OC(F)(F)F)cc5)c34)(C1)C2` [Example 37, 2-(3-(1-(4-(trifluoromethoxy)benzyl)-1H-indazole-7-carboxamido)bicyclo[1.1.1]pentan-1-yl)acetic Acid], the half-maximal inhibitory concentration (IC50) amounted to 75 nM.

Regarding `CC1(NC(=O)c2cccc3ccn(Cc4ccc(C(F)(F)F)cc4)c23)CC(CCC(=O)O)C1` (stereo not drawn) [Example 15, cis-3-(3-methyl-3-(1-(4-(trifluoromethyl)benzyl)-1H-indole-7-carboxamido)cyclobutyl)propanoic Acid], the IC50 was determined as 400 nM.

On to `O=C(O)C[C@]12C[C@](NC(=O)c3cccc4ccn(Cc5ccc(-c6ccccc6)cc5)c34)(C1)C2` [Example 34, 2-(3-(1-([1,1′-biphenyl]-4-ylmethyl)-1H-indole-7-carboxamido)bicyclo[1.1.1]pentan-1-yl)acetic Acid], for which the half-inhibitory concentration (IC50) came out at 0.22 nM.

Regarding `O=C(O)CC12CCC(NC(=O)c3cccc4ccn(Cc5ccc(S(F)(F)(F)(F)F)cc5)c34)(C1)C2` [Example 29, 2-(4-(1-((4-(pentafluorothiol)phenyl)methyl)-1H-indole-7-carboxamido)bicyclohexan-1-yl)acetic Acid], the 50% inhibitory concentration (IC50) amounted to 1.2 nM.

With `O=C(O)CC12CCC(NC(=O)c3ccc(F)c4ccn(Cc5ccc(C(F)(F)F)cc5)c34)(C1)C2` [Example 28, 2-(4-(4-fluoro-1-(4-(trifluoromethyl)benzyl)-1H-indole-7-carboxamido)bicyclohexan-1-yl)acetic Acid], the IC50 came out at 0.6 nM.

Regarding `O=C(NC1CC2(C1)CC(C(=O)O)C2)c1nccc2ccn(Cc3ccc(C(F)(F)F)cc3)c12` (racemic) [Example 11, rac-6-(1-(4-(trifluoromethyl)benzyl)-1H-pyrrolo[2,3-c]pyridine-7-carboxamido)spiro[3.3]heptane-2-carboxylic Acid], the IC50 was determined as 24 nM.

Consider `O=C(NC1CC2(C1)CC(C(=O)O)C2)c1cccc2ccn(Cc3ccc(C(F)F)cc3)c12` (racemic) [Example 25, rac-6-(1-(4-(difluoromethyl)benzyl)-1H-indole-7-carboxamido)spiro[3.3] heptane-2-carboxylic Acid], for which the IC50 worked out at 0.4 nM.

Turning to `O=C(O)C[C@]12C[C@](NC(=O)c3cc(F)cc4ccn(Cc5ccc(C(F)(F)F)cc5)c34)(C1)C2` [Example 33, 2-(3-(5-fluoro-1-(4-(trifluoromethyl)benzyl)-1H-indole-7-carboxamido)bicyclopentan-1-yl)acetic Acid], the IC50 turned out to be 0.1 nM.

Take `O=C(O)CC12CC(NC(=O)c3cccc4cnn(Cc5ccc(C(F)(F)F)cc5)c34)(C1)C2` [Example 6, 2-(3-(1-(4-(trifluoromethyl)benzyl)-1H-indazole-7-carboxamido)bicyclo[1.1.1]pentan-1-yl)acetic Acid]: the IC50 amounted to 19 nM.

In the case of `O=C(NC1CC2(C1)CC(C(=O)O)C2)c1ccc(F)c2ccn(Cc3ccc(C(F)F)cc3)c12` (racemic) [Example 31, rac-6-(1-(4-(difluoromethyl)benzyl)-4-fluoro-1H-indole-7-carboxamido)spiro heptane-2-carboxylic Acid], the IC50 came to 0.03 nM.

As for `O=C(O)C[C@]12C[C@](NC(=O)c3cccc4cnn(Cc5ccc(-c6ccccc6)cc5)c34)(C1)C2` [Example 36, 2-(3-(1-([1,1′-biphenyl]-4-ylmethyl)-1H-indazole-7-carboxamido)bicyclo[1.1.1]pentan-1-yl)acetic Acid], the IC50 was found to be 0.32 nM.

Consider `O=C(O)C[C@]12C[C@](NC(=O)c3ccc(F)c4ccn(Cc5ccc(-c6ccccc6)cc5)c34)(C1)C2` [Example 35, 2-(3-(1-([1,1′-biphenyl]-4-ylmethyl)-4-fluoro-1H-indole-7-carboxamido)bicyclo[1.1.11]pentan-1-yl)acetic Acid], for which the IC50 stood at 0.28 nM.

With `O=C(NC1CC2(C1)CC(C(=O)O)C2)c1c(F)ccc2ccn(Cc3ccc(C(F)(F)F)cc3)c12` (racemic) [Example 23, rac-6-(6-fluoro-1-(4-(trifluoromethyl)benzyl)-1H-indole-7-carboxamido)spiro heptane-2-carboxylic Acid], the concentration for half-maximal inhibition (IC50) is 0.3 nM.

On to `O=C(NC1CC2(C1)CC(C(=O)O)C2)c1cccc2ncn(Cc3ccc(C(F)(F)F)cc3)c12` (racemic) [Example 13, rac-6-(1-(4-(trifluoromethyl)benzyl)-1H-benzo[d]imidazole-7-carboxamido) spiro[3.3]heptane-2-carboxylic Acid], for which the IC50 is 32 nM.

As to `O=C(NC1CC2(C1)CC(C(=O)O)C2)c1cc(F)cc2ccn(Cc3ccc(C(F)(F)F)cc3)c12` (racemic) [Example 21, rac-6-(5-fluoro-1-(4-(trifluoromethyl)benzyl)-1H-indole-7-carboxamido)spiro heptane-2-carboxylic Acid], the concentration for half-maximal inhibition (IC50) stood at 0.31 nM.

For the compound `O=C(O)CC12CC(NC(=O)c3nccc4ccn(Cc5ccc(C(F)(F)F)cc5)c34)(C1)C2` [Example 5, 2-(3-(1-(4-(trifluoromethyl)benzyl)-1H-pyrrolo[2,3-c]pyridine-7-carboxamido)bicyclo[1.1.1]pentan-1-yl)acetic Acid], the half-inhibitory concentration (IC50) was 930 nM.

`O=C(O)CC12CC(NC(=O)c3cccc4ccn(Cc5ccc(C(F)(F)F)cc5)c34)(C1)C2` [Example 2, 2-(3-(1-(4-(trifluoromethyl)benzyl)-1H-indole-7-carboxamido)bicyclo[1.1.1]pentan-1-yl)acetic Acid]: the IC50 is 1.5 nM.

For `N#Cc1ccc(Cn2ccc3cccc(C(=O)NC4CC5(C4)CC(C(=O)O)C5)c32)cc1` (racemic) [Example 24, rac-6-(1-(4-cyanobenzyl)-1H-indole-7-carboxamido)spiro[3.3]heptane-2-carboxylic Acid], the concentration for half-maximal inhibition (IC50) was determined as 10 nM.

Take `O=C(O)CC12CC(NC(=O)c3ccnc4ccn(Cc5ccc(C(F)(F)F)cc5)c34)(C1)C2` [Example 3, 2-(3-(1-(4-(trifluoromethyl)benzyl)-1H-pyrrolo[3,2-b]pyridine-7-carboxamido)bicyclo[1.1.11]pentan-1-yl)acetic Acid]: the 50% inhibitory concentration (IC50) was 160 nM.

For the compound `O=C(O)CC12CCC(NC(=O)c3cccc4ccn(Cc5ccc(C(F)(F)F)cc5)c34)(C1)C2` [Example 19, 2-(4-(1-(4-(trifluoromethyl)benzyl)-1H-indole-7-carboxamido)bicyclo[2.1.1]hexan-1-yl)acetic Acid], the IC50 was 9.1 nM.

Consider `N#Cc1ccc(Cn2ccc3cccc(C(=O)NC45CC(CC(=O)O)(C4)C5)c32)cc1` [Example 1, 2-(3-(1-(4-cyanobenzyl)-1H-indole-7-carboxamido)bicyclo[1.1.1]pentan-1-yl) acetic Acid], for which the 50% inhibitory concentration (IC50) came to 13 nM.

As for `O=C(NC1CC2(C1)CC(C(=O)O)C2)c1cccc2ccn(Cc3ccc(S(F)(F)(F)(F)F)cc3)c12` (racemic) [Example 30, rac-6-(1-((4-(pentafluorothiol)phenyl)methyl)-1H-indole-7-carboxamido)spiro heptane-2-carboxylic Acid], the IC50 amounted to 0.2 nM.

A word on the IC50: it is the point on the concentration scale where inhibition reaches its midpoint.

(Values after patent US11066405B2, “Bicyclic compounds and their use in the treatment of cancer” (Tempest Therapeutics, Inc., priority 2017, dated 2021).)
